Data on 122 compounds can be found in a melting point compilation (Tetko et al.).

Usually melting point stands for the temperature, or range, at which the solid turns liquid.

Compound `Nc1ccccc1-c1ccncc1` registered a melting point of 83 to 85 °C.

`NNc1ncccc1C(F)(F)F` showed a melting point of 71 to 73 °C.

As for `O=C1CCC(=O)N1CCBr`, the melting point is 53 to 55 °C.

The compound `COc1ccc(N2CCC(N)CC2)cc1` had a melting point of 50 to 52 °C.

On to `N=c1[nH]cc(S(=O)(=O)O)cc1[N+](=O)[O-]`, for which the melting point was in the range of 317 to 319 °C.

Compound `Cc1cc(=O)c(C(=O)O)nn1-c1ccccc1[N+](=O)[O-]` displayed a melting point of 240 to 242 °C.

Turning to `O=C(O)c1cc(Br)ccc1I`, the melting point lay in the range of 120 to 122 °C.

`O=C1CCSc2c(Cl)cccc21` registered a melting point of 91 to 93 °C.

Compound `O=S(=O)(Cl)CCc1ccccc1` displayed a melting point of 30 to 32 °C.

In turn, `CSCCC(NS(=O)(=O)c1ccccc1F)C(=O)O` (configuration not stated) came in with a melting point of 104 to 106 °C.

In the case of `O=C(O)c1ccccc1SCC(=O)N1CCc2ccccc21`, the melting point was in the range of 152 to 154 °C.

`Cc1ccccc1OCc1nnc(S)[nH]1` gave a melting point of 110 to 112 °C.

The compound `NC(COC1CCOCC1)=NO` gave a melting point of 79 to 81 °C.

In turn, `O=C1CN(C2CCCC2)C(=O)N1` had a melting point of 148 to 150 °C.

With `CCC(CC)NC(=O)C(=O)NN`, the melting point is 177 to 179 °C.

For `O=C(O)CCCCCNC1=NS(=O)(=O)c2ccccc21`, the melting point fell in the range of 189 to 191 °C.

Compound `CN1CCN(Cc2ccc(N)cc2)CC1` yielded a melting point of 96 to 98 °C.

On to `Cc1cc(C)c(OCC(=O)O)c(C)c1`, for which the melting point lay within 150 to 152 °C.

On to `O=C(O)c1cc(N2CCCC2=O)ccc1F`, for which the melting point is 254 to 256 °C.

Turning to `CC(C)(C)OC(=O)N1CCCc2cc(N)ccc21`, the melting point lay in the range of 55 to 57 °C.

The compound `Cc1ccc(C2OCCCC2C(=O)O)cc1` (configuration not stated) returned a melting point of 126 to 128 °C.

`O=C(O)CCNC(=O)c1ccsc1` returned a melting point of 235 to 237 °C.

The compound `Cc1ccc(N2CCCC(Br)C2=O)cc1` (configuration not stated) showed a melting point of 96 to 98 °C.

Compound `CC(C)c1ccccc1Nc1nc2ccccc2s1` came in with a melting point of 115 to 116 °C.

Turning to `Cc1nn(Cc2ccc(Cl)cc2)c(C)c1C(=O)O`, the melting point is 188 to 190 °C.

`Cc1ccc(Cn2nc(C)c(CCC(=O)O)c2C)cc1` displayed a melting point of 134 to 136 °C.

The compound `Nc1ccn(CCN2CCNC2=O)n1` returned a melting point of 118 to 120 °C.

As to `O=C(O)C=Cc1ccccc1OCC1CCCCC1`, the melting point lay in the range of 99 to 101 °C.

As for `COC(=O)COc1ccc(O)cc1`, the melting point lay in the range of 113 to 115 °C.

`Nc1ccc([N+](=O)[O-])cc1Br`: the melting point lay within 99 to 101 °C.

Take `Nc1nnc(Cc2ccccc2)s1`: the melting point was in the range of 170 to 179 °C.

`COC(=O)C(N)c1cc(C)c(O)c(C)c1` (configuration not stated) returned a melting point of 147 to 149 °C.

The compound `CC(C)(C)OC(=O)N1CCN(C(N)=S)CC1` yielded a melting point of 168 to 170 °C.

For `OC1C2CCCC1CN(Cc1ccccc1)C2` (configuration not stated), the melting point lay within 88 to 90 °C.

For the compound `O=Cc1cc([N+](=O)[O-])ccc1OC(F)F`, the melting point lay in the range of 46 to 48 °C.

`CN(C)c1ncncc1N`: the melting point lay in the range of 97 to 99 °C.

Compound `ClCc1nc(-c2ccsc2)no1` showed a melting point of 52 to 56 °C.

Take `O=C(NC(C(=O)O)c1ccccc1)OCc1ccccc1` (configuration not stated): the melting point was 130 to 132 °C.

Take `Cc1cccnc1NC(=O)C1CCNCC1`: the melting point fell in the range of 136 to 138 °C.

In turn, `OCC1CSc2ccccc2O1` (configuration not stated) came in with a melting point of 89 to 91 °C.

With `O=C(O)CCNS(=O)(=O)c1c(Cl)cccc1Cl`, the melting point lay in the range of 119 to 121 °C.

Take `O=C(O)Cn1cc([N+](=O)[O-])ccc1=O`: the melting point is 225 to 227 °C.

In turn, `CC1CCCCC1Nc1nnc(S)s1` (configuration not stated) came in with a melting point of 133 to 135 °C.

`COc1cc(CN)ccc1OCCO`: the melting point fell in the range of 113 to 115 °C.

In the case of `O=c1cc(O)c2ccccc2o1`, the melting point fell in the range of 211 to 215 °C.

The compound `CC(NC(=O)Nc1ccccc1)C(=O)O` (configuration not stated) showed a melting point of 180 to 182 °C.

The compound `CC(Sc1ccccc1Cl)C(=O)O` (configuration not stated) displayed a melting point of 50 to 52 °C.

Take `O=[N+]([O-])c1cccnc1N1CCC(CO)CC1`: the melting point lay within 71 to 73 °C.

For the compound `O=S(=O)(Cl)c1ccc(S(F)(F)(F)(F)F)cc1`, the melting point was in the range of 82 to 84 °C.

Regarding `N#Cc1ccnc(Oc2ccccc2Cl)c1`, the melting point was in the range of 79 to 81 °C.

`O=C1CCc2cc(Cl)ccc2N1` came in with a melting point of 162 to 164 °C.

Compound `Nc1ccc(Sc2ccc(Cl)cc2)cc1` registered a melting point of 60 to 62 °C.

In the case of `NCc1ccccc1CN1C(=O)NC2(CCCCC2)C1=O`, the melting point fell in the range of 141 to 143 °C.

For `CNS(=O)(=O)c1ccc(S(N)(=O)=O)cc1`, the melting point fell in the range of 154 to 156 °C.

`O=C(O)c1ccccc1NCc1ccco1` showed a melting point of 156 to 158 °C.

For `O=C(Nc1cccnc1)OCC(F)(F)F`, the melting point was in the range of 140 to 142 °C.

Consider `CC(Cl)C(=O)Nc1cccc(C#N)c1` (configuration not stated), for which the melting point fell in the range of 108 to 110 °C.

For `Cc1c(C(=O)O)cnc2ccccc12`, the melting point was in the range of 254 to 256 °C.

For `CS(=O)(=O)c1ccc(C(=O)NN)cc1`, the melting point is 189 to 191 °C.

Take `O=Cc1c[nH]c2ncccc12`: the melting point was in the range of 211 to 213 °C.

`Cc1cc(C)cc(C2(C(=O)O)CCC2)c1` came in with a melting point of 132 to 134 °C.

`Fc1ccc(-c2nnc(CCl)o2)cc1`: the melting point is 138 to 140 °C.

In turn, `N#CCC(=O)Nc1ncccn1` came in with a melting point of 159 to 161 °C.

In the case of `O=c1c2ccccc2c(-c2nnc(S)o2)nn1Cc1ccccc1`, the melting point lay within 238 to 242 °C.

`CC(C)NS(=O)(=O)c1cc(C(=O)O)ccc1F` gave a melting point of 168 to 170 °C.

`COc1ccc(F)cc1CCl` gave a melting point of 52 to 53 °C.

`CN(C)c1cccc(-c2nnc(N)o2)c1`: the melting point lay within 175 to 177 °C.

The compound `CC(=O)CN1C(=O)c2ccccc2S1(=O)=O` showed a melting point of 144 to 146 °C.

For `O=C(O)CNC(=O)CC1CCCCC1`, the melting point is 116 to 118 °C.

In turn, `COc1cc(C=O)ccc1OCC#N` registered a melting point of 75 to 77 °C.

In turn, `COc1ccc(C=O)cc1OCCCC#N` had a melting point of 72 to 74 °C.

`CNc1cccnc1N1CCCC1` came in with a melting point of 105 to 107 °C.

`CCOc1cccc2c1OCC(C(=O)O)C2` (configuration not stated) gave a melting point of 160 to 162 °C.

For `Cc1ccc(Oc2ccc(N)cc2)cc1`, the melting point is 118 to 122 °C.

For `O=[N+]([O-])c1ccn(CCCBr)n1`, the melting point was 35 to 37 °C.

In the case of `Cc1ccc(NS(=O)(=O)c2ccc(C(=O)O)cc2)cc1`, the melting point lay in the range of 285 to 287 °C.

In turn, `CC(C)NC(=O)NC(=O)CCl` displayed a melting point of 86 to 88 °C.

`CCCn1nc(C(=O)O)ccc1=O` registered a melting point of 132 to 134 °C.

The compound `N#CCC(=O)c1ccc(Br)s1` yielded a melting point of 143 to 145 °C.

Regarding `CCOc1ccc(S(=O)(=O)Nc2ccc(C(=O)O)cc2)cc1`, the melting point fell in the range of 226 to 228 °C.

Consider `O=C(O)c1csc(CCc2ccccc2)n1`, for which the melting point was 132 to 134 °C.

`NS(=O)(=O)c1ccc(Cl)c(C(=O)O)c1` returned a melting point of 219 to 221 °C.

As to `Cc1ccc(-n2cc(C(=O)O)c(-c3ccccc3)n2)cc1`, the melting point was 194 to 196 °C.

In turn, `NNC(=O)C(=O)Nc1ccccn1` yielded a melting point of 179 to 181 °C.

`NC(=NO)c1ccc(N2CCCCC2)cc1` yielded a melting point of 169 to 171 °C.

The compound `N#Cc1ccsc1C(=O)O` displayed a melting point of 191 to 193 °C.

Compound `Cc1cc(=O)[nH]c(C)c1C(=O)O` showed a melting point of 274 to 276 °C.

`O=C(NCc1ccccn1)OCC(F)(F)F` had a melting point of 50 to 52 °C.

`COc1cc(N)cc(Br)c1` had a melting point of 39 to 41 °C.

Take `O=C(O)C1CCCN(S(=O)(=O)c2ccc3ccccc3c2)C1` (configuration not stated): the melting point is 137 to 139 °C.

Consider `Cc1c(C(=O)O)oc2c1ccc1ccccc12`, for which the melting point was in the range of 206 to 208 °C.

The compound `Nc1ccc(-c2nc3ccc(N)cc3[nH]2)cc1` registered a melting point of 234 to 236 °C.

For the compound `Nc1onc(-c2ccc(Br)s2)c1-c1ccc(F)cc1`, the melting point was 141 to 143 °C.

`O=C1CC=NN1c1ccc(F)cc1` returned a melting point of 121 to 123 °C.

For the compound `CCc1c(O)nc(S)n(-c2ccccc2C)c1=O`, the melting point was 178 to 180 °C.

In the case of `CCOc1ccccc1C(=O)NC(C(=O)O)C(C)C` (configuration not stated), the melting point was in the range of 127 to 129 °C.

`OCC(c1ccc(Cl)cc1)N1CCNCC1` (configuration not stated): the melting point lay in the range of 116 to 118 °C.

In turn, `O=S(=O)(O)C1CCCNC1` (configuration not stated) came in with a melting point of 304 to 306 °C.

Compound `Cc1c(C(=O)O)oc2cc3c(cc12)CCC3` registered a melting point of 265 to 267 °C.

For `O=C(O)CNC(=O)COc1ccccc1`, the melting point was in the range of 89 to 91 °C.

`O=C(O)Cn1nnc2ccccc21` gave a melting point of 210 to 212 °C.

The compound `CC(C)c1ccc(Cn2nccc2N)cc1` yielded a melting point of less than 17 °C.

Compound `Cc1nc(N)sc1Cc1ccccc1Cl` had a melting point of 126 to 128 °C.

`Nc1ccc(Oc2ccc(F)cc2)nc1` had a melting point of 47 to 49 °C.

Consider `COc1ccc2cc(C#N)ccc2c1`, for which the melting point lay in the range of 105 to 107 °C.

`O=C(O)c1cn(CC(=O)N2CCCC2)nn1`: the melting point was 208 to 210 °C.

Turning to `Cn1cc(C(N)=O)c(C(F)F)n1`, the melting point fell in the range of 214 to 216 °C.

Regarding `Cc1nn(-c2ccccn2)c2nc(C3CC3)cc(C(=O)O)c12`, the melting point lay within 237 to 239 °C.

`Cc1cc(F)c2nc(O)cc(C(=O)O)c2c1` had a melting point of 337 to 339 °C.

With `O=C(O)CSCc1coc(-c2ccccc2)n1`, the melting point lay in the range of 124 to 126 °C.

With `CC(C)(C)CCCC(=O)O`, the melting point lay within 36 to 38 °C.

As to `O=C(O)c1cc(S(=O)(=O)N2CCCC2)c[nH]1`, the melting point fell in the range of 175 to 177 °C.

On to `Fc1ccc2c(C3=CCNCC3)c[nH]c2c1`, for which the melting point lay in the range of 173 to 175 °C.

`O=c1[nH]c(C(F)(F)F)cs1`: the melting point lay within 91 to 93 °C.

Regarding `Cc1csc(=O)n1CCBr`, the melting point lay within 47 to 51 °C.

`COC(=O)c1cc2c(F)cc(F)cc2[nH]1` showed a melting point of 198 to 200 °C.

`CN(C)S(=O)(=O)c1ccc2c(c1)CCN2` registered a melting point of 111 to 113 °C.

For `CSc1nc(-c2ccc(F)cc2)nc(C)c1C(=O)O`, the melting point fell in the range of 231 to 233 °C.

Compound `c1c[nH]c(CN2CCNCC2)n1` had a melting point of 153 to 155 °C.

`O=C(O)Cc1cc(=O)n(-c2ccccn2)[nH]1` displayed a melting point of 98 to 100 °C.

In turn, `Cn1ncc2c(=O)n(CCC(=O)O)cnc21` yielded a melting point of 212 to 214 °C.

`OCCOc1ccc(Br)cc1`: the melting point was in the range of 53 to 55 °C.
